In ChEMBL document CHEMBL1201862, “PubChem BioAssay data set” (2004):
The source made the active and inactive calls.

Experiments:
[1] = NIH-3T3 fibroblast cytotoxicity, dose response, cytotoxicity control, cell-based, fluorescence, Alamar Blue, secondary assay (AID 2327); type: functional;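 further: NIH-3T3 mouse fibroblasts cultured with fluconazole at 8 µg/mL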
[2] = C. albicans growth with fluconazole, confirmation, fluorescence, retest (AID 2467); type: functional, cell-based
[3] = biological target: Voltage-dependent T-type calcium channel subunit alpha-1H (Homo sapiens, UniProt O95180); type: functional;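 further: channel activity triggered by adding a high calcium stimulation buffer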
Beta-galactosidase = Beta-galactosidase (Escherichia coli, UniProt Q8VNN2); assay: PubChem AID 485352; type: functional
[4] = biological target: T1, Type-1 angiotensin II receptor (Homo sapiens, UniProt P30556); assay: AT1 receptor antagonists, dose response, selectivity assay for APJ receptor antagonist project, cell-based, uHTS hits (AID 463214); type: functional;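 further: antagonist potency against angiotensin II stimulated AT1 response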
T1 sequence (P30556 whole entry): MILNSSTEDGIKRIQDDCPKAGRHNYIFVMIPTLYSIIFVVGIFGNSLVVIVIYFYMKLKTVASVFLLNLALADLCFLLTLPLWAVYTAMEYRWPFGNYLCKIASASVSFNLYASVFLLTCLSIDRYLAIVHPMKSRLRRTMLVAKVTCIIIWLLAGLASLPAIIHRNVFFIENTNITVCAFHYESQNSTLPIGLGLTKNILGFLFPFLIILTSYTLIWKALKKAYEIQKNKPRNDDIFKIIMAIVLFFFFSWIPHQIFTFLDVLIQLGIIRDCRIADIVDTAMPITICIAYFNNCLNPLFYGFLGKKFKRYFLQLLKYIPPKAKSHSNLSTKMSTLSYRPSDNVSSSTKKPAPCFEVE

[5] = A cytotoxicity screen of small molecule inhibitors of the PhoP region in Salmonella typhi identified in the primary screen. [Related pubchem assays: 1850, 1864, 1985 ]; type: functional
[6] = biological target: FAD-linked sulfhydryl oxidase ALR (Homo sapiens, UniProt P55789); assay: inhibitors of human ALR sulfhydryl oxidase, dose response, biochemical, H2O2 detection, luminescence, cherry-pick (AID 493248)
Cytochrome P450 3A4 = Cytochrome P450 3A4 (Homo sapiens, UniProt P08684); conditions: Potency;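 further: confirmatory qHTS run detecting inhibitors and substrates of CYP3A4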
[7] = biological target: T2, Zinc finger protein mex-5 (Caenorhabditis elegans, UniProt Q9XUB2); assay: MEX-5/TCR-2 RNA interaction inhibitors, dose response, biochemical, C. elegans, fluorescence polarization (AID 1960)
T2 sequence (Q9XUB2 whole entry): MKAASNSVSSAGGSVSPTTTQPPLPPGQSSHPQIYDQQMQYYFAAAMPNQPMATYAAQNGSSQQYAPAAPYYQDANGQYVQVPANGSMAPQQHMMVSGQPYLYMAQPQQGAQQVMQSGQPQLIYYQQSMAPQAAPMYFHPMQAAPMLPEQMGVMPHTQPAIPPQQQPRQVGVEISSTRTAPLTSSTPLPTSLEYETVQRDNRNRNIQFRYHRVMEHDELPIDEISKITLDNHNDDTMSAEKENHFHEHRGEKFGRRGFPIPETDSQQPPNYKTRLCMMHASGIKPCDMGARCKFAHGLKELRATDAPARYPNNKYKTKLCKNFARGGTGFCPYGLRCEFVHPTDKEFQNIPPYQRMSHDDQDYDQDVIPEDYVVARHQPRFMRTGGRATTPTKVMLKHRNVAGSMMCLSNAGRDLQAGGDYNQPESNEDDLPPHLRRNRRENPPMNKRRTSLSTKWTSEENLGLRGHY

[8] = biological target: T3, RNA-binding protein pos-1 (Caenorhabditis elegans, UniProt G5EF15); assay: inhibitors of POS-1/mex-3 RNA binding, dose response, biochemical, fluorescence polarization (AID 1964);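 further: purified POS-1 fused to maltose binding protein made in E. coli; potency of compounds blocking POS-1 binding to fluorescent RNA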
T3 sequence (G5EF15 whole entry): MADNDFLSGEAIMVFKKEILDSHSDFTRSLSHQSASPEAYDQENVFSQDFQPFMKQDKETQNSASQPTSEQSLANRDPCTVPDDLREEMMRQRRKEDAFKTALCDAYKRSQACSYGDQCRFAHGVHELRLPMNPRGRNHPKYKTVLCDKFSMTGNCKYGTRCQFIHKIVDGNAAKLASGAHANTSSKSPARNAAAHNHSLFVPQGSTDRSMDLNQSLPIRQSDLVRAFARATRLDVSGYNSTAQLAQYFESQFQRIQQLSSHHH

[9] = biological target: T4, Endoribonuclease toxin MazF (Escherichia coli K-12, UniProt P0AE70); assay: MazF toxin RNase activators, dose response, biochemical, fluorescence, single-stranded RNA substrate, uHTS hits (AID 588481); type: functional
T4 sequence (P0AE70 whole entry): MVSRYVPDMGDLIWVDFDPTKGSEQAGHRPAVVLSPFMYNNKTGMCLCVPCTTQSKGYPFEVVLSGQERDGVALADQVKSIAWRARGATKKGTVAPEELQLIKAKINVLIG

[10] = biological target: T4, Endoribonuclease toxin MazF; assay: fluorescent RNA oligo signal without MazF, dose response, counter-screen for MazEF activator project, biochemical, fluorescence, single-stranded RNase substrate (AID 588502); type: functional
Vero = Vero cell cytotoxicity, cytotoxicity control for flavivirus capping enzyme inhibitors (AID 588742); type: functional; conditions: Chlorocebus sabaeus
H9c2 = assay: cells; type: functional, cell-based; conditions: Rattus norvegicus, H9c2, Myocardium;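 further: confirmatory concentration-response retest of ultra-high-throughput screening hits for modulation of myocardial damage; cell death induced by hydrogen peroxide oxidative stress; compound pretreatment for 60 min then peroxide exposure for 2 h; potency is for protecting the cells against peroxide damage rather than for killing them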
[11] = HEp-2 cell cytotoxicity, dose response, cytotoxicity control for RSV inhibitor project, HTS (AID 2410); type: functional; conditions: human respiratory syncytial virus

Chain of Voltage-dependent T-type calcium channel subunit alpha-1H (O95180 whole entry): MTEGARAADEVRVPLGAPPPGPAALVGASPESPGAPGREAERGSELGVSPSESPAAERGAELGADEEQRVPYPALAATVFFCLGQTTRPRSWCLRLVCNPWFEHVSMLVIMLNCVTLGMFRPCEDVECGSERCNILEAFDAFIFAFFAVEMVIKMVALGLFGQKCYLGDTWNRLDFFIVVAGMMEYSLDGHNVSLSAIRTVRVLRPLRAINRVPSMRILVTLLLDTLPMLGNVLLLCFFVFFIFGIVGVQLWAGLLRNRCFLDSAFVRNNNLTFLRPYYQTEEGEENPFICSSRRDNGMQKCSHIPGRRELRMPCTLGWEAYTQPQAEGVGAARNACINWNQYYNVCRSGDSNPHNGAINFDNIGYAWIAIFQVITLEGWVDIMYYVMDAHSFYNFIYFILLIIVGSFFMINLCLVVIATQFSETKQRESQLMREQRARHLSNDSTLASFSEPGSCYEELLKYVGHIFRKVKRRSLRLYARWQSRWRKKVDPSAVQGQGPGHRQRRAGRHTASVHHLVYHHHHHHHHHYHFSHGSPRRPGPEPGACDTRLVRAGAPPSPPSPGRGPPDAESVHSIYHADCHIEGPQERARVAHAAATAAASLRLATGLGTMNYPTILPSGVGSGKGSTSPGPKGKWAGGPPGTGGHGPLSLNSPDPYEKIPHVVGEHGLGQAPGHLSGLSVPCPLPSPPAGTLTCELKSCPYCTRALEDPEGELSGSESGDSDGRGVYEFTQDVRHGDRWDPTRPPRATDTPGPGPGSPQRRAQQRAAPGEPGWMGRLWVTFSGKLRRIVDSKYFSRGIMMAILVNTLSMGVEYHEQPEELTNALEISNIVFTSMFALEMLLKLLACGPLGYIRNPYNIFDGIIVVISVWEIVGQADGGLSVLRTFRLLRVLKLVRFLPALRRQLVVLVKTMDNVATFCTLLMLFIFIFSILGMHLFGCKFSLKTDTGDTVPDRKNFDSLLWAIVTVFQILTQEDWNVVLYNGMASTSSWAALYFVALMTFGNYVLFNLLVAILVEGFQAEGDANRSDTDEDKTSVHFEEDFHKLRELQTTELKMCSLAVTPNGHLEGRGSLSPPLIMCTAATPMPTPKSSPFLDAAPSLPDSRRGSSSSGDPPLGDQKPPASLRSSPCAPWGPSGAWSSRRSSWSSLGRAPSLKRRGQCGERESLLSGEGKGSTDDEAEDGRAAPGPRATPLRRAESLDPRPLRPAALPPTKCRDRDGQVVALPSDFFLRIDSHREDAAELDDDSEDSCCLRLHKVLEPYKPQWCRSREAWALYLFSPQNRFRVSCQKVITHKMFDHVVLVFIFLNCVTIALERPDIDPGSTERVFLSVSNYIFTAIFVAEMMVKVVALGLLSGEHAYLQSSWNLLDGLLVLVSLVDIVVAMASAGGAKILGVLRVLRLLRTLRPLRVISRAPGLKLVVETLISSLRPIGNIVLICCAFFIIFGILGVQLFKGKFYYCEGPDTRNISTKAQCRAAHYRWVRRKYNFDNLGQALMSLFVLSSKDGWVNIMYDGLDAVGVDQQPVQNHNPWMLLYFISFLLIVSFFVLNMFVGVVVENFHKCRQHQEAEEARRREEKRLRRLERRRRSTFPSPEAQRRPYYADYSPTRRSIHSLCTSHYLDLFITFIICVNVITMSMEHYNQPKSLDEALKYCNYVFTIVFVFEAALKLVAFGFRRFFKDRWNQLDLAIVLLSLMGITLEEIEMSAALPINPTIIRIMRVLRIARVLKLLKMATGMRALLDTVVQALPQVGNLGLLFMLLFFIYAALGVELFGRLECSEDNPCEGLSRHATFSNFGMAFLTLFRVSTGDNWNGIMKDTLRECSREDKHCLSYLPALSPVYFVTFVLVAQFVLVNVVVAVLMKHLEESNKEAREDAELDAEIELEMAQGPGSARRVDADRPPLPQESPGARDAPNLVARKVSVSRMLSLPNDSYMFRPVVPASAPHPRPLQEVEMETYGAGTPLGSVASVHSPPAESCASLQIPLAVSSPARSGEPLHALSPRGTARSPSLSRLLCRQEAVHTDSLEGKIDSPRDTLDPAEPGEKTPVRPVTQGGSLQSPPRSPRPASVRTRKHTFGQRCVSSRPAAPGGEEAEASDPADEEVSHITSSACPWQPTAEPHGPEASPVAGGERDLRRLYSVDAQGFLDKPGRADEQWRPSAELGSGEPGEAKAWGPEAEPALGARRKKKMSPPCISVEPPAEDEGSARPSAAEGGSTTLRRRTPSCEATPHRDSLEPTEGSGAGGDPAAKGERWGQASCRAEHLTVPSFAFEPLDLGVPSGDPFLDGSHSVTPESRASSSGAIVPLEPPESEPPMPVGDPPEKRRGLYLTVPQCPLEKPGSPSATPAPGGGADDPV
Chain of Beta-galactosidase (Q8VNN2 whole entry): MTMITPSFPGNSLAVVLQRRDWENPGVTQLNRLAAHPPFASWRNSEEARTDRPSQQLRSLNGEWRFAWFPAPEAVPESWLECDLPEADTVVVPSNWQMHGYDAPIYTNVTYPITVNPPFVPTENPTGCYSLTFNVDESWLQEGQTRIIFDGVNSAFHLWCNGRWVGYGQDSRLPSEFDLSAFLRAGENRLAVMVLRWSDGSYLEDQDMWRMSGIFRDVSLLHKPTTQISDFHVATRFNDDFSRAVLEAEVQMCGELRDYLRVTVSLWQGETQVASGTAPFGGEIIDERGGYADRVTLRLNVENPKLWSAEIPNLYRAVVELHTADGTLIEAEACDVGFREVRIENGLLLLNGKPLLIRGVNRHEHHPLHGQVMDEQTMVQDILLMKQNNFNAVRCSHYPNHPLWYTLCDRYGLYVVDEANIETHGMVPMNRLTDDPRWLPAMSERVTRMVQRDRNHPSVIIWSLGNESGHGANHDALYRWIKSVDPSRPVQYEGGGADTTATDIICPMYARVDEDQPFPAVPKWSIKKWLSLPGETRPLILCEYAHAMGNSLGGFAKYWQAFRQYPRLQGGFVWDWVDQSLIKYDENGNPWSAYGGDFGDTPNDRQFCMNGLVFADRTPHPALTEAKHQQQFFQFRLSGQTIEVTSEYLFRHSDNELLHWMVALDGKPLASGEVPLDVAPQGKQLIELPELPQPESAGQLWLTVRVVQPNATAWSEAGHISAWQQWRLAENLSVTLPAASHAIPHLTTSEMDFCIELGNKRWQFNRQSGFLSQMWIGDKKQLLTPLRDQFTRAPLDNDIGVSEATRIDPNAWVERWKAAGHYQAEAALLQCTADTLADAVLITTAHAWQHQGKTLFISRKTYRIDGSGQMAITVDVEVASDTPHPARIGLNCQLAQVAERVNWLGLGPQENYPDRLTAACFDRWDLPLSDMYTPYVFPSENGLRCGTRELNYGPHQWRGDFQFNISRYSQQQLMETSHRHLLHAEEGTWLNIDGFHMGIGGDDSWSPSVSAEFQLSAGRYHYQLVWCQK
Chain of Cytochrome P450 3A4 (P08684 whole entry): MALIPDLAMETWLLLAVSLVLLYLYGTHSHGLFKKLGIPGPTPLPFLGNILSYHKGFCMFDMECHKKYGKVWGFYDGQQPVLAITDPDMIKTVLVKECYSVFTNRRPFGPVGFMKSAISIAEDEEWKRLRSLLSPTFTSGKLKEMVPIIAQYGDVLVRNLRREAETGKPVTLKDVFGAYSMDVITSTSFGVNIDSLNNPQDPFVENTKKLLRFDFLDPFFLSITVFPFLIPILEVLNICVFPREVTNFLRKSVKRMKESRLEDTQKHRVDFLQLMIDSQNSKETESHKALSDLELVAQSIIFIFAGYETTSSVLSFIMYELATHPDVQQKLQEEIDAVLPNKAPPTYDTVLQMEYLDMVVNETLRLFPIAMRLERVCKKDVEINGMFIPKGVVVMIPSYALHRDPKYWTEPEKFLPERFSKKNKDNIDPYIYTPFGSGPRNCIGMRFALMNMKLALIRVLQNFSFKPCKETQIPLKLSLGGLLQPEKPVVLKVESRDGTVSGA
Chain of FAD-linked sulfhydryl oxidase ALR (P55789 whole entry): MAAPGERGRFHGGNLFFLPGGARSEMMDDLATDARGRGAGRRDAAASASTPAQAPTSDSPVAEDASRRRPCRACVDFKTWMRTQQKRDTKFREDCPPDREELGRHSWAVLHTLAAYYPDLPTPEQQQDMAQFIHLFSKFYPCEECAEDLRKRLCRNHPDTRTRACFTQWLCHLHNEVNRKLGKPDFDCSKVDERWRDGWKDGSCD

N#CC1CC(c2ccccc2)=NN1c1ccccc1[N+](=O)[O-] (stereo not drawn)
EC50 [1]: > 160 µM (inactive)
EC50 [2]: > 38 µM (not active)

CC(Oc1ccccc1)c1ccnn1S(=O)(=O)c1ccccc1 (stereo not drawn)
EC50 [3]: 50.8 µM (active)

CCn1c(CNc2ccccc2Cl)nnc1SCC(=O)OC1CCCCC1
EC50 [3]: 3.84 µM (active)

CC1=NN(c2ccc(C)cc2)C(=O)/C1=C/c1ccc(-c2cc([N+](=O)[O-])ccc2O)o1
EC50 (Beta-galactosidase): > 40 µM (inactive)
IC50 [4]: > 40 µM (not active)

COc1cccc(/N=C2\NC(=O)/C(=C/c3cc([N+](=O)[O-])ccc3O)S2)c1
EC50 (Beta-galactosidase): > 40 µM (inactive)
IC50 [4]: > 40 µM (not active)

O=C(COC(=O)c1ccco1)c1ccc(S(=O)(=O)N2CCCCC2)cc1
EC50 (Beta-galactosidase): > 40 µM (inactive)
IC50 [4]: 16.5 µM (active)

Cc1nn(CCC(=O)NN=C(S)Nc2ccc(F)cc2)c(C)c1Br
EC50 (Beta-galactosidase): > 40 µM (inactive)
IC50 [4]: > 40 µM (not active)

Cc1cc(NS(=O)(=O)c2ccc(NC(=O)Nc3cccc(Cl)c3)cc2)no1
EC50 [5]: > 50 µM (active)
AC50 [6]: 0.098 µM (active)

Cc1ccc(S(=O)(=O)NC2CCCCC2)cc1
AC50 (Cytochrome P450 3A4): 20 µM (inconclusive)

CSc1ncc(Cl)c(C(=O)C(C#N)c2nc(O)c3cc(C)cc(C)c3n2)n1 (stereo not drawn)
EC50 [1]: 18.3 µM (active)
EC50 [2]: 2.48 µM (active)

Cc1cc(NC(=O)/C(C#N)=C/c2ccc(-c3ccc(SC(F)F)cc3)o2)n(-c2ccccc2)n1
EC50 [7]: 25.8 µM (active)
EC50 [8]: 22.9 µM (active)
EC50 [9]: > 99 µM (inactive)
EC50 [10]: 48.9 µM (inactive)

Cc1cc(NC(=O)c2cccc(Oc3ccccc3)c2)[nH]n1
EC50 [1]: > 150 µM (inactive)
EC50 [2]: 1.87 µM (active)

O=C(CSc1nnc(-c2ccccc2)n1Cc1ccco1)NCc1ccc2c(c1)OCO2
EC50 [3]: 12.1 µM (active)

CNC(=O)/C(C#N)=C/c1c(N(Cc2ccccc2)Cc2ccccc2)nc2ccccn2c1=O
CC50 (Vero): > 40 µM (active)
IC50 (H9c2): > 79 µM (inactive)

Cc1ccc2oc(C(=O)Nc3ccc(S(=O)(=O)Nc4onc(C)c4C)cc3)c(C)c2c1
IC50 (cells): 23.7 µM (active)
CC50 [11]: 25.9 µM (active)

COc1ccccc1C(=O)Nc1ccc(NC(=O)c2ccco2)c(C)c1
EC50 [3]: 6.29 µM (active)

COc1ccc(N(C(=O)c2cccnc2)S(=O)(=O)c2ccc(F)cc2)cc1
EC50 [5]: > 50 µM (active)

COc1ccc(OC)c(NC(=O)c2c3c(nc4ccccc24)CCC3)c1
EC50 [1]: > 150 µM (inactive)
EC50 [2]: 2.17 µM (active)

Clc1ccc(C2[C@H]3CN(Cc4ccc(-c5ccccc5)cc4)[C@H](c4ccccc4)C34CC2(c2ccccc2)C4)cn1 (stereo partly drawn)
AC50 (Cytochrome P450 3A4): 15.8 µM (inconclusive)
